This note sets out measurements from ChEMBL document CHEMBL1127400 (J Med Chem, 1994).

The target of one experiment is T1, Sodium-dependent dopamine transporter (Rattus norvegicus, UniProt P23977). The experiment is described as follows: Binding affinity was determined against cocaine binding site by measuring the ability of compound to displace bound [3H]dopamine from rat caudate-putamen tissue. The class given is tissue-based.
T1 sequence (P23977 whole entry): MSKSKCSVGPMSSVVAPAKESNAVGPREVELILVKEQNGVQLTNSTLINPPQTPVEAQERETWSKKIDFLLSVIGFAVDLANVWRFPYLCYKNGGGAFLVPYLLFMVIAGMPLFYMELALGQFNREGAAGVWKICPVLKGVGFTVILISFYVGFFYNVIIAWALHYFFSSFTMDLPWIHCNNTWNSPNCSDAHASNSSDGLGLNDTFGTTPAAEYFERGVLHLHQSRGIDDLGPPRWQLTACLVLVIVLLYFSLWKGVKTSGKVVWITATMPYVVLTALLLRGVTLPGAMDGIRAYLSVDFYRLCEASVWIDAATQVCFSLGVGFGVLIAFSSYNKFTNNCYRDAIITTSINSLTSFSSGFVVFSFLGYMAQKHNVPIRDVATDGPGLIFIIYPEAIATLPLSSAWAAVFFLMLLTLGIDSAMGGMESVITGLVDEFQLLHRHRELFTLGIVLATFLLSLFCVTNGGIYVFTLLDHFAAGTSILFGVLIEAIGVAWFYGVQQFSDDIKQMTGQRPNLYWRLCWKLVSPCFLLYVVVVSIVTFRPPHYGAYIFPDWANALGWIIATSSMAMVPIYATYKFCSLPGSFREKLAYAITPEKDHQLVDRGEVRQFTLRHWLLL
`COC(=O)[C@@H]1C2CC[C@H](C[C@@H]1c1ccccc1)N2C`: the Ki came to 33 nM.

In turn, `CN1C2CC[C@@H]1C[C@H](c1ccccc1)C2CC/C=C/C(=O)O` (stereo partly drawn) came in with a Ki of 20 nM.

`CN1C2CC[C@@H]1C[C@H](c1ccccc1)C2CCCO` (stereo partly drawn): the Ki turned out to be 11 nM. Compared with the last compound, the Ki is about 1.8-fold lower.

`COC(=O)CCC1C2CC[C@H](C[C@@H]1c1ccccc1)N2C` (stereo partly drawn) gave a Ki of 23 nM.

In turn, `COC(=O)/C=C/C1C2CC[C@H](C[C@@H]1c1ccccc1)N2C` (stereo partly drawn) yielded an inhibition constant Ki of 22 nM.

Regarding `CN1C2CC[C@@H]1C[C@H](c1ccccc1)C2/C=C/CO` (stereo partly drawn), the inhibitory constant (Ki) came out at 26 nM.

In a further experiment the target is T1, Sodium-dependent dopamine transporter. The experiment is described as follows: Binding affinity was determined against cocaine receptor by measuring the ability of compound to displace bound [3H]-3 from rat caudate-putamen tissue. The class given is tissue-based.
Turning to `COC(=O)[C@@H]1C2CC[C@H](C[C@@H]1c1ccccc1)N2C`, the affinity, expressed as Ki, was 314 nM.

The target is the same in the next experiment. The experiment is described as follows: Tested for its ability to inhibit high affinity uptake of [3H]dopamine into rat caudate-putamen tissue. The format is tissue-based.
The compound `COC(=O)[C@@H]1C2CC[C@H](C[C@@H]1c1ccccc1)N2C` registered an IC50 of 373 nM.

`CN1C2CC[C@@H]1C[C@H](c1ccccc1)C2CCCO` (stereo partly drawn) gave a concentration for half-maximal inhibition (IC50) of 64 nM.

Compound `COC(=O)CCC1C2CC[C@H](C[C@@H]1c1ccccc1)N2C` (stereo partly drawn) returned an IC50 of 166 nM.

Regarding `COC(=O)/C=C/C1C2CC[C@H](C[C@@H]1c1ccccc1)N2C` (stereo partly drawn), the IC50 was determined as 123 nM.

Test system in a further experiment: not listed separately
As to the kind of experiment: Tested for its ability to inhibit high affinity uptake of [3H]-dopamine into rat caudate-putamen tissue. The format is functional, tissue-based.
In turn, `CN1C2CC[C@@H]1C[C@H](c1ccccc1)C2CC/C=C/C(=O)O` (stereo partly drawn) registered a concentration for half-maximal inhibition (IC50) of 203 nM.

`CN1C2CC[C@@H]1C[C@H](c1ccccc1)C2/C=C/CO` (stereo partly drawn) displayed an IC50 of 159 nM.
